Measurements published in patent US9745311B2, “Substituted pyrrolo[2,3-b]pyrazines as FGFR inhibitors” (Incyte Corporation, priority 2012, dated 2017).
Where two headings read alike, the source gives them in different places.

Tests used:
FGFR2 = FGFR2 (Homo sapiens (Human), UniProt P21802); test: FGFR Enzymatic Assay (FGFR2); assay type: biochemical;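 also: FRET read-out of peptide phosphorylation by the purified kinase, with enzyme-free blank and uninhibited enzyme as controls, potency from a variable-slope sigmoidal dose-response fit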
FGFR1 = FGFR1 (Homo sapiens (Human), UniProt P11362); test: FGFR Enzymatic Assay (FGFR1); assay type: biochemical; settings: enzyme 0.02 nM, ATP 210 μM
Protocol: (§1) The inhibitor potency of compounds was measured in an enzyme assay that measures peptide phosphorylation using FRET measurements to detect product formation. Inhibitors were serially diluted in DMSO and a volume of 0.5 μL was transferred to the wells of a 384-well plate. For FGFR3, a 10 μL volume of FGFR3 enzyme (Millipore) diluted in assay buffer (50 mM HEPES, 10 mM MgCl2, 1 mM EGTA, 0.01% Tween-20, 5 mM DTT, pH 7.5) was added to the plate and pre-incubated for 5-10 minutes. Appropriate controls (enzyme blank and enzyme with no inhibitor) were included on the plate. […] The plate was incubated at 25° C. for 1 hr. […] The plate was allowed to equilibrate for ˜1 hr before scanning the wells on a PheraStar plate reader.
(§2) GraphPad prism3 was used to analyze the data. The IC50 values were derived by fitting the data to the equation for a sigmoidal dose-response with a variable slope. Y=Bottom+(Top−Bottom)/(1+10^((Log IC50−X)*HillSlope)) where X is the logarithm of concentration and Y is the response.

FGFR3 enzyme (Millipore) = FGFR3 enzyme (Millipore) (Homo sapiens (Human), UniProt P22607); settings: read-out: FGFR3 IC50, ATP 140 μM
Protocol: as §1, §2

[1] = enzyme 0.01 nM, ATP 100 μM, read-out: FGFR2 IC50

Chain of FGFR3 enzyme (Millipore) (P22607 23-806): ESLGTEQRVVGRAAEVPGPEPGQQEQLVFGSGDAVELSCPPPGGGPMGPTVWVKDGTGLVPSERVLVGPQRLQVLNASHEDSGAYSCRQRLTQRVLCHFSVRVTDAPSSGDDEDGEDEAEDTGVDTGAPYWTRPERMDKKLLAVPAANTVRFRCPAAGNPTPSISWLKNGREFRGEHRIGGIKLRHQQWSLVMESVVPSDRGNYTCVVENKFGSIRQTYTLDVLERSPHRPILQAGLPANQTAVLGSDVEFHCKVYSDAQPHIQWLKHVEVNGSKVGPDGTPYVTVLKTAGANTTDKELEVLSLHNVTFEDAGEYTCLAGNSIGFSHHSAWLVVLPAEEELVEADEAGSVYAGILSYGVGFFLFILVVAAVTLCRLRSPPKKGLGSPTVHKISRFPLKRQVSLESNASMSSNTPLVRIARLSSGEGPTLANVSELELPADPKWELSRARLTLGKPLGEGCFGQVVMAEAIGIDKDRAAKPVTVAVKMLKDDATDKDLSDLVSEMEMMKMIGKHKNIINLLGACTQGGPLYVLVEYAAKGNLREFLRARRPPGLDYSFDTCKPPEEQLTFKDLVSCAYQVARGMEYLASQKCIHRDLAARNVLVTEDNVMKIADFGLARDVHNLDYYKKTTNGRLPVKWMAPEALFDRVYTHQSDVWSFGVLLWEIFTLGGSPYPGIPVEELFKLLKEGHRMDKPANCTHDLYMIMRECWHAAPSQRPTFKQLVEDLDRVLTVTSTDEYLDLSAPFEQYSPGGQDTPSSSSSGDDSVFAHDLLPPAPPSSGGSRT
Chain of FGFR2 (P21802 22-821): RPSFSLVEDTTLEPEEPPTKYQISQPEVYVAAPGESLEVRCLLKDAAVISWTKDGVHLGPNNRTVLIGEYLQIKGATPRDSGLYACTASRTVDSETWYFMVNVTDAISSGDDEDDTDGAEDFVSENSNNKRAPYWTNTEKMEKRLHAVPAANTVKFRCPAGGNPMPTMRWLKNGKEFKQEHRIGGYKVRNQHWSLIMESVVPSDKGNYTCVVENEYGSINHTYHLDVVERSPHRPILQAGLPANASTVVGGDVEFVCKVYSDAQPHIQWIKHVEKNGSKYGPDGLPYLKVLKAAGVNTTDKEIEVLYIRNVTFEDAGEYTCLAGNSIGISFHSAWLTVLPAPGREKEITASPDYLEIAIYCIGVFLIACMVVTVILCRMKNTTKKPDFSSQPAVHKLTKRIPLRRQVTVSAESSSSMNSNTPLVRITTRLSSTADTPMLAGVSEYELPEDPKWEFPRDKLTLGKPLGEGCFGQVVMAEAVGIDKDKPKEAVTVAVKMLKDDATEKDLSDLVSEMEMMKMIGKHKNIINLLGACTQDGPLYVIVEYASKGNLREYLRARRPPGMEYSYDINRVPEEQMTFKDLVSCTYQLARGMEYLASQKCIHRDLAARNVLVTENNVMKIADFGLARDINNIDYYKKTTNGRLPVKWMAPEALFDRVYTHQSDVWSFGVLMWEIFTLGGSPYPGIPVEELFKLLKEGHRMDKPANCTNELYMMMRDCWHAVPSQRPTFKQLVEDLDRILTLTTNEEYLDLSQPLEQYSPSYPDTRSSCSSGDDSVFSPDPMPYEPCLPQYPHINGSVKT
Chain of FGFR1 (P11362 22-822): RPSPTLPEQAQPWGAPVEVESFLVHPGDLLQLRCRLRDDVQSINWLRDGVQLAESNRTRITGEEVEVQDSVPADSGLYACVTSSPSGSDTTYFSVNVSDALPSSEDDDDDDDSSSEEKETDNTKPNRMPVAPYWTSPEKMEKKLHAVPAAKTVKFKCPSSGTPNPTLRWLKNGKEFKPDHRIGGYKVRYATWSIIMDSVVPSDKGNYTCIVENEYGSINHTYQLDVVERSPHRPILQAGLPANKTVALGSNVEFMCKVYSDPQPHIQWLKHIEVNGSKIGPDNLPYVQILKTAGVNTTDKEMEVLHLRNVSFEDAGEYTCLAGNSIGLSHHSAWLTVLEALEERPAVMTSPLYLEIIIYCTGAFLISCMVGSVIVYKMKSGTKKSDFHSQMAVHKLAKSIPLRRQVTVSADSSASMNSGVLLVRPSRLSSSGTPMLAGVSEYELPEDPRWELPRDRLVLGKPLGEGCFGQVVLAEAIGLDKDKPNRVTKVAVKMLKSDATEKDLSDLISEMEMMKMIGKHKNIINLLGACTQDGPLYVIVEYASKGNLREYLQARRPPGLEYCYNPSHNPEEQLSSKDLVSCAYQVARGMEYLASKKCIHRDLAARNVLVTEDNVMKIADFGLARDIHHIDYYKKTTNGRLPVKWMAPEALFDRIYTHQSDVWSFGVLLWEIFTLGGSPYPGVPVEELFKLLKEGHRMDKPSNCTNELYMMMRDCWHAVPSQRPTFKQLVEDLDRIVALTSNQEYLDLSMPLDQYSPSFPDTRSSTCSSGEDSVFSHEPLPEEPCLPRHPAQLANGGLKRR

IC50 (FGFR2; [1]) | IC50 (FGFR1) | IC50 (FGFR3 enzyme (Millipore); class symbols) | SMILES | IC50 (FGFR3 enzyme (Millipore); numeric bounds) | IC50 (FGFR2)
< 100 nM | < 100 nM | < 100 nM | COc1cc(CCc2cnc3[nH]c(-c4cnn(C(C)CC#N)c4)cc3n2)cc(OC)c1 (stereo not shown) [Example 36, 3-(4-(2-(3,5-dimethoxyphenethyl)-5H-pyrrolo[2,3-b]pyrazin-6-yl)-1H-pyrazol-1-l)butanenitrile] | – | –
< 100 nM | < 100 nM | < 100 nM | COc1cc(CCc2cnc3[nH]c(-c4ccc(N5CCN(C)C(=O)C5)cc4)cc3n2)cc(OC)c1 [Example 81, 4-(4-(2-(3,5-Dimethoxyphenethyl)-5H-pyrrolo[2,3-b]pyrazin-6-yl)phenyl)-1-methylpiperazin-2-one] | – | –
– | – | – | CNC(=O)c1cc2nc(CCc3cc(OC)cc(OC)c3)cnc2[nH]1 [Example 25, 2-[2-(3,5-dimethoxyphenyl)ethyl]-N-methyl-5H-pyrrolo[2,3-b]pyrazine-6-carboxamide] | > 2000 nM | –
< 100 nM | < 100 nM | < 100 nM | CCN1CCN(c2ccc(-c3cc4nc(CCc5cc(OC)cc(OC)c5)cnc4[nH]3)cc2)CC1 [Example 2, 2-[2-(3,5-dimethoxyphenyl)ethyl]-6-[4-(4-ethylpiperazin-1-yl)phenyl]-5H-pyrrolo[2,3-b]pyrazine] | – | –
< 100 nM | < 100 nM | < 100 nM | COc1cc(OC)c(F)c(CCc2cnc3[nH]c(-c4ccccc4C#N)cc3n2)c1F [Example 85, 2-(2-(2,6-difluoro-3,5-dimethoxyphenethyl)-5H-pyrrolo[2,3-b]pyrazin-6-yl)benzonitrile] | – | –
< 100 nM | < 100 nM | < 100 nM | COc1cc(CCc2cnc3[nH]c(-c4ccc(N5CCC(O)CC5)cc4)cc3n2)cc(OC)c1 [Example 77, 1-(4-(2-(3,5-Dimethoxyphenethyl)-5H-pyrrolo[2,3-b]pyrazin-6-yl)phenyl)piperidin-4-ol] | – | –
< 100 nM | < 100 nM | < 100 nM | COc1cc(OC)c(F)c(CCc2cnc3[nH]c(-c4cnn(CC(C)(C)O)c4)cc3n2)c1F [Example 88, 1-(4-(2-(2,6-difluoro-3,5-dimethoxyphenethyl)-5H-pyrrolo[2,3-b]pyrazin-6-yl)-1H-pyrazol-1-yl)-2-methylpropan-2-ol] | – | –
< 100 nM | < 100 nM | < 100 nM | CCc1c(-c2ccc(N3CCN(C)CC3)cc2)[nH]c2ncc(CCc3cc(OC)cc(OC)c3)nc12 [Example 52, 2-[2-(3,5-dimethoxyphenyl)ethyl]-7-ethyl-6-[4-(4-methylpiperazin-1-yl)phenyl]-5H-pyrrolo[2,3-b]pyrazine] | – | –
< 100 nM | < 100 nM | < 100 nM | COc1cc(CCc2cnc3[nH]c(-c4cnn(CCN5CCOCC5)c4)cc3n2)cc(OC)c1 [Example 31, 2-[2-(3,5-dimethoxyphenyl)ethyl]-6-[1-(2-morpholin-4-ylethyl)-1H-pyrazol-4-yl]-5H-pyrrolo[2,3-b]pyrazine] | – | –
< 100 nM | < 100 nM | < 100 nM | COc1cc(CCc2cnc3[nH]c(-c4ccc5c(cnn5C)c4)cc3n2)cc(OC)c1 [Example 62, 2-(3,5-Dimethoxyphenethyl)-6-(1-methyl-1H-indazol-5-yl)-5H-pyrrolo[2,3-b]pyrazine] | – | –
< 100 nM | < 100 nM | < 100 nM | COc1cc(CCc2cnc3[nH]c(-c4cnn(CCN5CCC(O)CC5)c4)cc3n2)cc(OC)c1 [Example 40, 1-[2-(4-{2-[2-(3,5-dimethoxyphenyl)ethyl]-5H-pyrrolo[2,3-b]pyrazin-6-yl}-1H-pyrazol-1-yl)ethyl]piperidin-4-ol] | – | –
< 100 nM | < 100 nM | < 100 nM | COc1cc(OC)c(F)c(CCc2cnc3[nH]c(-c4cnn(C)c4)cc3n2)c1F [Example 84, 2-(2,6-difluoro-3,5-dimethoxyphenethyl)-6-(1-methyl-1H-pyrazol-4-yl)-5H-pyrrolo[2,3-b]pyrazine] | – | –
< 100 nM | < 100 nM | < 100 nM | COc1cc(CCc2cnc3[nH]c(-c4ccc(N5CCN(C)CC5)cc4)c(Br)c3n2)cc(OC)c1 [Example 46, 7-bromo-2-[2-(3,5-dimethoxyphenyl)ethyl]-6-[4-(4-methylpiperazin-1-yl)phenyl]-5H-pyrrolo[2,3-b]pyrazine] | – | –
< 100 nM | < 100 nM | < 100 nM | COc1ccc(-c2cc3nc(CCc4cc(OC)cc(OC)c4)cnc3[nH]2)cc1 [Example 5, 2-[2-(3,5-dimethoxyphenyl)ethyl]-6-(4-methoxyphenyl)-5H-pyrrolo[2,3-b]pyrazine] | – | –
< 100 nM | < 100 nM | < 100 nM | COc1cc(CCc2cnc3[nH]c(-c4cnn(CCN5CCCCC5)c4)cc3n2)cc(OC)c1 [Example 41, 2-[2-(3,5-dimethoxyphenyl)ethyl]-6-[1-(2-piperidin-1-ylethyl)-1H-pyrazol-4-yl]-5H-pyrrolo[2,3-b]pyrazine] | – | –
< 100 nM | < 100 nM | < 100 nM | COc1cc(OC)c(F)c(CCc2cnc3[nH]c(-c4cn[nH]c4C)cc3n2)c1F [Example 83, 2-[2-(2,6-difluoro-3,5-dimethoxyphenyl)ethyl]-6-(5-methyl-1H-pyrazol-4-yl)-5H-pyrrolo[2,3-b]pyrazine] | – | –
< 100 nM | < 100 nM | < 100 nM | COc1cc(CCc2cnc3[nH]c(-c4cccc(N5CCN(C)CC5)c4)cc3n2)cc(OC)c1 [Example 79, 2-(3,5-Dimethoxyphenethyl)-6-(3-(4-methylpiperazin-1-yl)phenyl)-5H-pyrrolo[2,3-b]pyrazine] | – | –
< 100 nM | < 100 nM | < 100 nM | COCc1ccc(-c2cc3nc(CCc4cc(OC)cc(OC)c4)cnc3[nH]2)cc1 [Example 12, 2-[2-(3,5-dimethoxyphenyl)ethyl]-6-[4-(methoxymethyl)phenyl]-5H-pyrrolo[2,3-b]pyrazine] | – | –
< 100 nM | < 100 nM | < 100 nM | COc1cc(OC)c(F)c(CCc2cnc3[nH]c(-c4cnn(CCN(C)C)c4)cc3n2)c1F [Example 87, 2-(4-(2-(2,6-difluoro-3,5-dimethoxyphenethyl)-5H-pyrrolo[2,3-b]pyrazin-6-yl)-1H-pyrazol-1-yl)-N,N-dimethylethanamine] | – | –
< 100 nM | < 100 nM | < 100 nM | COc1cc(CCc2cnc3[nH]c(-c4ccc(N5CCN(C)CC5)cc4)cc3n2)c(F)c(OC)c1 [Example 82, 2-(2-Fluoro-3,5-dimethoxyphenethyl)-6-(4-(4-methylpiperazin-1-yl)phenyl)-5H-pyrrolo[2,3-b]pyrazine] | – | –
< 100 nM | < 100 nM | < 100 nM | COc1cc(CCc2cnc3[nH]c(-c4cnn(CC(=O)N5CCN(C)CC5)c4)cc3n2)cc(OC)c1 [Example 44, 2-(4-(2-(3,5-dimethoxyphenethyl)-5H-pyrrolo[2,3-b]pyrazin-6-yl)-1H-pyrazol-1-yl)-1-(4-methylpiperazin-1-yl)ethanone] | – | –
< 100 nM | < 100 nM | < 100 nM | COc1cc(CCc2cnc3[nH]c(-c4cccc(N5CCNCC5)c4)cc3n2)cc(OC)c1 [Example 78, 2-(3,5-Dimethoxyphenethyl)-6-(3-(piperazin-1-yl)phenyl)-5H-pyrrolo[2,3-b]pyrazine] | – | –
< 100 nM | < 100 nM | – | COc1cc(CCc2cnc3[nH]c(-c4ccc(F)c(C#N)c4)cc3n2)cc(OC)c1 [Example 65, 5-(2-(3,5-Dimethoxyphenethyl)-5H-pyrrolo[2,3-b]pyrazin-6-yl)-2-fluorobenzonitrile] | – | –
< 100 nM | < 100 nM | < 100 nM | COc1cc(CCc2cnc3[nH]c(-c4cnn(CC(C)(C)O)c4)cc3n2)cc(OC)c1 [Example 33, 1-(4-{2-[2-(3,5-dimethoxyphenyl)ethyl]-5H-pyrrolo[2,3-b]pyrazin-6-yl}-1H-pyrazol-1-yl)-2-methylpropan-2-ol] | – | –
– | – | – | COc1cc(CCc2cnc3[nH]c(C4CCN(C)CC4)cc3n2)cc(OC)c1 [Example 24, 2-[2-(3,5-dimethoxyphenyl)ethyl]-6-(1-methylpiperidin-4-yl)-5H-pyrrolo[2,3-b]pyrazine] | > 2000 nM | –
– | – | – | COc1cc(CCc2cnc3[nH]c(-c4ccc5c(c4)OCO5)cc3n2)cc(OC)c1 [Example 21, 6-(1,3-benzodioxol-5-yl)-2-[2-(3,5-dimethoxyphenyl)ethyl]-5H-pyrrolo[2,3-b]pyrazine] | > 2000 nM | –
– | – | – | CCN(CC)CCCc1cc2nc(CCc3cc(OC)cc(OC)c3)cnc2[nH]1 [Example 28, 3-{2-[2-(3,5-dimethoxyphenyl)ethyl]-5H-pyrrolo[2,3-b]pyrazin-6-yl}-N,N-diethylpropan-1-amine] | > 2000 nM | –
500 to 2700 nM | – | – | COc1cc(CCc2cnc3[nH]c(C(=O)N(C)C)cc3n2)cc(OC)c1 [Example 26, 2-[2-(3,5-dimethoxyphenyl)ethyl]-N,N-dimethyl-5H-pyrrolo[2,3-b]pyrazine-6-carboxamide] | > 2000 nM | –
< 100 nM | < 100 nM | – | COc1cc(CCc2cnc3[nH]c(-c4ccc(N5CCN(C)CC5)c(C#N)c4)cc3n2)cc(OC)c1 [Example 72, 5-(2-(3,5-Dimethoxyphenethyl)-5H-pyrrolo[2,3-b]pyrazin-6-yl)-2-(4-methylpiperazin-1-yl)benzonitrile] | – | –

SMILES | IC50 (FGFR2; [1]) | IC50 (FGFR1) | IC50 (FGFR3 enzyme (Millipore); class symbols) | IC50 (FGFR3 enzyme (Millipore); numeric bounds) | IC50 (FGFR2)
COc1cc(CCc2cnc3[nH]c(-c4cnc(N(C)C)nc4)cc3n2)cc(OC)c1 [Example 20, 5-{2-[2-(3,5-dimethoxyphenyl)ethyl]-5H-pyrrolo[2,3-b]pyrazin-6-yl}-N,N-dimethylpyrimidin-2-amine] | – | < 100 nM | – | > 1000 nM | 100 to 500 nM
CNC(=O)c1cc2nc(CCc3c(F)c(OC)cc(OC)c3F)cnc2[nH]1 [Example 89, 2-(2,6-difluoro-3,5-dimethoxyphenethyl)-N-methyl-5H-pyrrolo[2,3-b]pyrazine-6-carboxamide] | < 100 nM | < 100 nM | – | > 400 nM | –
